Measured values taken from patent US7713937B2, “Synthetic peptide amides and dimeric forms thereof” (Cara Therapeutics, Inc., priority 2006, dated 2010).
Square brackets hold non-standard residues; d marks the D form. Peptide text beside a SMILES is read from it. * marks the point of attachment. Homopiperazine(4-amidino) = N=C(N)N1CCCN(*)CC1; dAgb = N=C(N)NCC[C@@H](N)C(=O)O; Homopiperazinyl = C1CNCCN(*)C1; dAgp = N=C(N)NC[C@@H](N)C(=O)O; dNle = CCCC[C@@H](N)C(=O)O; dDab = NCC[C@@H](N)C(=O)O; Morpholide = C1CN(*)CCO1; Inp = O=C(O)C1CCNCC1

Tests used:
[1] = target: T1, human kappa opioid receptor (hKOR) (Homo sapiens, UniProt P41145); experiment: cell-based; conditions: for Emax: HEK293, read-out: hKOR Efficacy(%)
T1 construct: expressed in transfected cells; host or cells: HEK-293 cells, transient transfection with Fugene6
T1 sequence (P41145 whole entry): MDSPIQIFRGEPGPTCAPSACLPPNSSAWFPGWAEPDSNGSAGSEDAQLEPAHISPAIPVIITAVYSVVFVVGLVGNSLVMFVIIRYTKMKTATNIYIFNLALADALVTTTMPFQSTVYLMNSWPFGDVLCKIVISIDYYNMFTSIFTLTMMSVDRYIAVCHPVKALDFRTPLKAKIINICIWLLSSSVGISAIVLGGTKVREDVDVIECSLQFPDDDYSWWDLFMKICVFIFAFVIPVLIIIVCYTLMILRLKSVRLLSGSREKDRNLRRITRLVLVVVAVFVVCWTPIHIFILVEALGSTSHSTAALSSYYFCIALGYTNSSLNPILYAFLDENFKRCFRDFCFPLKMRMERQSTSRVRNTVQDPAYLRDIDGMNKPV

[2] = target: T2, mouse kappa opioid receptor (mKOR) (Mus musculus, UniProt P33534); experiment: cell-based; conditions: for Emax: read-out: mKOR Efficacy(%)
T2 construct: Stimulation of Endogenous Mouse Kappa-Opioid Receptor in R1.G1 Cells; host or cells: R1.G1 mouse thymoma cells
T2 sequence (P33534 whole entry): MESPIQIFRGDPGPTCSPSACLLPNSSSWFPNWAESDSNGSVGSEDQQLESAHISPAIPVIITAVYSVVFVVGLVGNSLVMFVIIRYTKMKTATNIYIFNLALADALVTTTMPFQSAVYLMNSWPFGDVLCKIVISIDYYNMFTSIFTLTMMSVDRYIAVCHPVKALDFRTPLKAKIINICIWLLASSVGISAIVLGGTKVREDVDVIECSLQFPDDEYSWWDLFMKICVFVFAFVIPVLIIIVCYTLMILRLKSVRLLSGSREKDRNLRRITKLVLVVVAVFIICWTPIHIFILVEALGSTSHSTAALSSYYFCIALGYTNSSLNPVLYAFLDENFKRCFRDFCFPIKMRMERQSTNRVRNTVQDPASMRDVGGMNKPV

CC(C)C[C@@H](NC(=O)[C@@H](Cc1ccccc1)NC(=O)[C@H](N)Cc1ccccc1)C(=O)N[C@H](CNC(=N)N)C(=O)N1CCCNCC1 [Compound (20), D-Phe-D-Phe-D-Leu-(β-amidino)D-Dap-[homopiperazine amide]] (H-[dF][dF][dL][dAgp]-Homopiperazinyl)
EC50 [1]: 0.39 nM | Emax [1]: 84% | EC50 [2]: 0.491 nM | Emax [2]: 102%

CCCC[C@@H](NC(=O)[C@@H](Cc1ccccc1)NC(=O)[C@H](N)Cc1ccccc1)C(=O)N[C@H](CNC(=N)N)C(=O)N1CCCNCC1 [Compound (21), D-Phe-D-Phe-D-Nle-(β-amidino)D-Dap-[homopiperazine amide]] (H-[dF][dF][dNle][dAgp]-Homopiperazinyl)
EC50 [1]: 1.06 nM | Emax [1]: 99% | EC50 [2]: 0.732 nM | Emax [2]: 103%

CC(C)C[C@@H](NC(=O)[C@@H](Cc1ccccc1)NC(=O)[C@H](N)Cc1ccccc1)C(=O)N[C@H](CCN)C(=O)N1CCCN(C(=N)N)CC1 [Compound (22), D-Phe-D-Phe-D-Leu-D-Dbu-[4-amidinohomopiperazine amide]] (H-[dF][dF][dL][dDab]-{Homopiperazine(4-amidino)})
EC50 [1]: 0.18 nM | Emax [1]: 86% | EC50 [2]: 0.095 nM | Emax [2]: 103%

CC(C)C[C@@H](NC(=O)[C@@H](Cc1ccccc1)NC(=O)[C@H](N)Cc1ccccc1)C(=O)N[C@H](CCNC(=N)N)C(=O)N1CCCN(C(=N)N)CC1 [Compound (23), D-Phe-D-Phe-D-Leu-D-Nar-[4-amidinohomopiperazine amide]] (H-[dF][dF][dL][dAgb]-{Homopiperazine(4-amidino)})
EC50 [1]: 0.17 nM | Emax [1]: 84% | EC50 [2]: 0.091 nM | Emax [2]: 104%

CC(C)C[C@@H](NC(=O)[C@@H](Cc1ccccc1)NC(=O)[C@H](N)Cc1ccccc1)C(=O)N[C@H](CCCNC(=N)N)C(=O)N1CCCN(C(=N)N)CC1 [Compound (24), D-Phe-D-Phe-D-Leu-D-Arg-[4-amidinohomopiperazine amide]] (H-[dF][dF][dL][dR]-{Homopiperazine(4-amidino)})
EC50 [1]: 0.09 nM | Emax [1]: 93% | EC50 [2]: 0.036 nM | Emax [2]: 97%

CC(C)C[C@@H](NC(=O)[C@@H](Cc1ccccc1)NC(=O)[C@H](N)Cc1ccccc1)C(=O)N[C@H](CCCCN)C(=O)N1CCC2(CCNC2=O)CC1 [Compound (25), D-Phe-D-Phe-D-Leu-D-Lys-[2,8-diazaspiro[4,5]decan-1-one amide]]
EC50 [1]: 0.0027 nM | Emax [1]: 101% | EC50 [2]: 0.0314 nM | Emax [2]: 82%

CC(C)C[C@@H](NC(=O)[C@@H](Cc1ccccc1)NC(=O)[C@H](N)Cc1ccccc1)C(=O)N[C@H](CCCCN)C(=O)N1CCC2(CCN(C)C2=O)CC1 [Compound (26), D-Phe-D-Phe-D-Leu-D-Lys-[2-methyl-2,8-diazaspiro[4,5]decan-1-one amide]]
EC50 [1]: 0.0083 nM | Emax [1]: 99% | EC50 [2]: 0.0194 nM | Emax [2]: 86%

CC(C)C[C@@H](NC(=O)[C@@H](Cc1ccccc1)NC(=O)[C@H](N)Cc1ccccc1)C(=O)N[C@H](CCCCN)C(=O)N1CCC2(CC1)NC(=O)NC2=O [Compound (27), D-Phe-D-Phe-D-Leu-D-Lys-[1,3,8-triazaspiro[4,5]decane-2,4-dione amide]]
EC50 [1]: < 0.001 nM | Emax [1]: 88% | EC50 [2]: 0.0056 nM | Emax [2]: 87%

CC(C)C[C@@H](NC(=O)[C@@H](Cc1ccccc1)NC(=O)[C@H](N)Cc1ccccc1)C(=O)N[C@H](CCCCN)C(=O)N1CCC(n2c(=O)[nH]c3cc(Cl)ccc32)CC1 [Compound (28), D-Phe-D-Phe-D-Leu-D-Lys-[5-chloro-1-(piperidin-4-yl)-1H-benzo[d]imidazol-2(3)H-one amide]]
Emax [1]: 100% | Emax [2]: 83%

CC(C)C[C@@H](NC(=O)[C@@H](Cc1ccccc1)NC(=O)[C@H](N)Cc1ccccc1)C(=O)N[C@H](CCCCN)C(=O)N1CCC(C(=O)N2CCOCC2)CC1 [Compound (29), D-Phe-D-Phe-D-Leu-D-Lys-[morpholino(piperidin-4-yl)methanone amide]] (H-[dF][dF][dL][dK][Inp]-Morpholide)
EC50 [1]: 0.0145 nM | Emax [1]: 100% | EC50 [2]: 0.0464 nM | Emax [2]: 86%

CC(C)C[C@@H](NC(=O)[C@@H](Cc1ccccc1)NC(=O)[C@H](N)Cc1ccccc1)C(=O)N[C@H](CCCCN)C(=O)N1CCC(n2cc(-c3ccccc3)[nH]c2=O)CC1 [Compound (30)]
Emax [1]: 95% | EC50 [2]: 0.129 nM | Emax [2]: 88%

Cc1nnc(C)n1C1CCN(C(=O)[C@@H](CCCCN)NC(=O)[C@@H](CC(C)C)NC(=O)[C@@H](Cc2ccccc2)NC(=O)[C@H](N)Cc2ccccc2)CC1 [Compound (31), D-Phe-D-Phe-D-Leu-D-Lys-[4-(3,5-dimethyl-4H-1,2,4-triazol-4-yl)piperidine amide]]
EC50 [1]: 0.0042 nM | Emax [1]: 95% | EC50 [2]: 0.0216 nM | Emax [2]: 86%

CC(C)C[C@@H](NC(=O)[C@@H](Cc1ccccc1)NC(=O)[C@H](N)Cc1ccccc1)C(=O)N[C@H](CCCCN)C(=O)N1CCC2(CC1)C(=O)NCN2c1ccccc1 [Compound (33), D-Phe-D-Phe-D-Leu-D-Lys-[1-phenyl-1,3,8-triazaspiro[4.5]decan-4-one amide]]
Emax [1]: 101% | Emax [2]: 86%

CC(C)C[C@@H](NC(=O)[C@@H](Cc1ccccc1)NC(=O)[C@H](N)Cc1ccccc1)C(=O)N[C@H](CCCCN)C(=O)NCc1cn2ccccc2n1 [Compound (34), D-Phe-D-Phe-D-Leu-D-Lys-[imidazo[1,2-a]pyridine-2-ylmethyl amide]]
EC50 [1]: 0.0208 nM | Emax [1]: 101% | EC50 [2]: 0.354 nM | Emax [2]: 90%

Cc1cnc(CNC(=O)[C@@H](CCCCN)NC(=O)[C@@H](CC(C)C)NC(=O)[C@@H](Cc2ccccc2)NC(=O)[C@H](N)Cc2ccccc2)cn1 [Compound (35), D-Phe-D-Phe-D-Leu-D-Lys-[(5-methylpyrazin-2-yl)methyl amide]]
EC50 [1]: 0.0064 nM | EC50 [2]: 0.0359 nM

CC(C)C[C@@H](NC(=O)[C@@H](Cc1ccccc1)NC(=O)[C@H](N)Cc1ccccc1)C(=O)N[C@H](CCCCN)C(=O)N1CCC(n2c(=O)[nH]c3ccccc32)CC1 [Compound (36), D-Phe-D-Phe-D-Leu-D-Lys-[1-(piperidin-4-yl)-1H-benzo[d]imidazol-2(3H)-one amide]]
Emax [1]: 100% | Emax [2]: 87%

CC(C)C[C@@H](NC(=O)[C@@H](Cc1ccccc1)NC(=O)[C@H](N)Cc1ccccc1)C(=O)N[C@H](CCCCN)C(=O)N1CCc2[nH]ncc2C1 [Compound (37), D-Phe-D-Phe-D-Leu-D-Lys-[4,5,6,7-tetrahydro-1H-pyrazolo[4,3-c]pyridine amide]]
EC50 [1]: 0.0052 nM | Emax [1]: 100% | EC50 [2]: 0.0234 nM | Emax [2]: 90%

CC(C)C[C@@H](NC(=O)[C@@H](Cc1ccccc1)NC(=O)[C@H](N)Cc1ccccc1)C(=O)N[C@H](CCCN)C(=O)NCCN1CCN(CC(=O)O)CC1 [Compound (38), D-Phe-D-Phe-D-Leu-D-Orn-[4-(2-aminoethyl)-1-carboxymethyl-piperazine]-OH]
Emax [1]: 102% | EC50 [2]: 0.403 nM | Emax [2]: 98%

CC(C)C[C@@H](NC(=O)[C@@H](Cc1ccccc1)NC(=O)[C@H](N)Cc1ccccc1)C(=O)N[C@H](CCCN)C(=O)N1CCC(CC(=O)O)CC1 [Compound (39), D-Phe-D-Phe-D-Leu-D-Orn-[4-carboxymethyl-piperidine]-OH]
EC50 [1]: 0.12 nM | Emax [1]: 99% | EC50 [2]: 0.08 nM | Emax [2]: 97%
